Measured values: ChEMBL document CHEMBL1201862, “PubChem BioAssay data set” (2004)
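Results reflect a 48-hour exposure of cells in 96-well plates to compound at five concentrations. The concentration for 50% growth inhibition is given as GI50.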 Calls of active or inactive are those of the source. No stated cut-off is given here; in the data, active = GI50 up to about 1.1 µM and inactive = higher.

Legend:
Assay in all cases: NCI anticancer screen, dose series, 48 h
[1] = tested on: SN12C
[2] = tested on: SR
[3] = tested on: Malme-3M
[4] = tested on: UACC-62
[5] = tested on: MDA-MB-435
[6] = tested on: NCI-H522
[7] = tested on: UO-31
[8] = tested on: SK-MEL-2
[9] = tested on: MDA-MB-231
[10] = tested on: NCI-H226
[11] = tested on: OVCAR-5
[12] = tested on: SF-268
[13] = tested on: HT-29
[14] = tested on: MOLT-4
[15] = tested on: IGROV-1
[16] = tested on: SNB-75
[17] = tested on: KM12
[18] = tested on: OVCAR-3
[19] = tested on: A549
[20] = tested on: TK-10

Measured: GI50

c1ccc(-c2cc(-c3cc(-c4ccccn4)[nH]n3)n[nH]2)nc1
inactive: [1] 27.6 µM | [2] 17.6 µM | [3] > 100 µM | [4] > 100 µM | [5] > 100 µM | [6] > 100 µM | [7] 22.6 µM | [8] > 100 µM | [9] > 100 µM | [10] > 100 µM | [11] > 100 µM | [12] > 100 µM | [13] 38.8 µM | [14] 33.3 µM | [15] > 100 µM | [16] 69.8 µM | [17] > 100 µM | [18] 74.1 µM | [19] 75.2 µM

O=C(NNC(=S)Nc1ccc(Cl)cc1)c1cc(-c2ccccc2)nc2ccccc12
inactive: [20] 7.19 µM | [1] 4.97 µM | [2] 2.21 µM | [3] 4.6 µM | [4] 2.9 µM | [5] 2.82 µM | [6] 5.64 µM | [7] 5.28 µM | [8] 2.56 µM | [9] 12.2 µM | [10] 11.5 µM | [11] 10.3 µM | [12] 11.7 µM | [13] 8.73 µM | [14] 4.24 µM | [15] 5.96 µM | [16] 4.9 µM | [17] 4.49 µM | [18] 2.66 µM | [19] 7.11 µM

CC1=NN(C(=O)CC(=O)Nc2ccc(Cl)cc2)C(=O)C1/N=N\c1ccc(S(=O)(=O)c2ccc(/N=N/C3C(=O)N(C(=O)CC(=O)Nc4ccc(Cl)cc4)N=C3C)cc2)cc1 (stereo unspecified)
inactive: [20] 35.7 µM | [1] > 100 µM | [2] > 100 µM | [3] > 100 µM | [4] > 100 µM | [5] > 100 µM | [6] > 100 µM | [7] > 100 µM | [8] 51.9 µM | [9] 51.9 µM | [10] > 100 µM | [11] 42.3 µM | [12] > 100 µM | [13] > 100 µM | [14] > 100 µM | [15] > 100 µM | [16] 39.5 µM | [17] > 100 µM | [18] > 100 µM | [19] > 100 µM

CNC1C(OC2C(OC3C(O)C(O)C(O)C(O)C3O)OC(C)C2(O)CO)OC(CO)C(O)C1O.N=C(N)N.NC(=O)O (stereo unspecified)
inactive: [20] > 100 µM | [1] > 100 µM | [2] > 100 µM | [3] > 100 µM | [4] > 100 µM | [5] > 100 µM | [6] > 100 µM | [7] > 100 µM | [8] > 100 µM | [9] > 100 µM | [10] > 100 µM | [11] > 100 µM | [12] > 100 µM | [13] > 100 µM | [14] > 100 µM | [15] > 100 µM | [16] > 100 µM | [17] > 100 µM | [18] > 100 µM | [19] > 100 µM

N/C(=N\Nc1ccc(S(N)(=O)=O)cc1)c1cnccn1
inactive: [20] > 100 µM | [1] > 100 µM | [2] > 100 µM | [3] > 100 µM | [4] > 100 µM | [5] > 100 µM | [6] > 100 µM | [7] > 100 µM | [8] > 100 µM | [9] > 100 µM | [10] > 100 µM | [11] > 100 µM | [12] > 100 µM | [13] > 100 µM | [14] > 100 µM | [15] > 100 µM | [16] > 100 µM | [17] > 100 µM | [18] > 100 µM | [19] > 100 µM

C=C1CC[C@@H]2[C@](C)(COC(=O)CCC(=O)O)CCC[C@@]2(C)[C@@H]1CCC1=CC(=O)OC1
inactive: [20] > 100 µM | [1] > 100 µM | [2] > 10 µM | [3] > 100 µM | [4] > 100 µM | [5] > 100 µM | [6] > 100 µM | [7] > 100 µM | [8] > 100 µM | [9] > 100 µM | [10] > 100 µM | [11] > 100 µM | [12] > 100 µM | [13] > 100 µM | [14] > 100 µM | [15] > 100 µM | [16] > 100 µM | [17] > 100 µM | [18] > 100 µM | [19] > 100 µM

O=C(O)CSCc1cccc2ccccc12
inactive: [20] 48.8 µM | [1] > 100 µM | [2] > 100 µM | [3] > 100 µM | [4] > 100 µM | [5] > 100 µM | [6] > 100 µM | [7] > 100 µM | [8] > 100 µM | [9] > 100 µM | [10] > 100 µM | [11] > 100 µM | [12] > 100 µM | [13] > 100 µM | [14] > 100 µM | [15] > 100 µM | [16] > 100 µM | [17] > 100 µM | [18] > 100 µM | [19] > 100 µM

C[C@]12CC[C@H]3[C@@H](CCC4=CC(=O)CC[C@@H]43)[C@@H]1CC[C@]2(O)C(N)=O
inactive: [20] > 100 µM | [1] > 100 µM | [2] > 100 µM | [3] > 100 µM | [4] > 100 µM | [5] > 100 µM | [6] > 100 µM | [7] > 100 µM | [8] > 100 µM | [9] > 100 µM | [10] > 100 µM | [11] > 100 µM | [12] > 100 µM | [13] > 100 µM | [14] > 100 µM | [15] > 100 µM | [16] > 100 µM | [17] > 100 µM | [18] > 100 µM | [19] > 100 µM

Oc1ccc(Cl)cc1-c1nc(S)nc(-c2ccccc2)c1Cl
inactive: [20] 49.1 µM | [1] > 100 µM | [2] > 100 µM | [3] > 100 µM | [4] > 10 µM | [5] > 100 µM | [6] > 31.6 µM | [7] > 88.5 µM | [8] 69.8 µM | [9] > 56.4 µM | [10] > 100 µM | [11] > 100 µM | [12] > 64.3 µM | [13] > 31.6 µM | [14] > 100 µM | [15] 72.4 µM | [16] 18.9 µM | [17] > 100 µM | [18] > 100 µM | [19] > 100 µM

CCCCc1ccc(Nc2nc3ncnc-3c[nH]2)cc1
inactive: [20] 17 µM | [1] 18.8 µM | [2] > 10 µM | [3] 19.6 µM | [4] 21 µM | [5] 33.7 µM | [6] 21.6 µM | [7] 12.5 µM | [8] 20.2 µM | [9] 12.8 µM | [10] 15.9 µM | [11] 37.2 µM | [12] 16.3 µM | [13] 21 µM | [14] 14.3 µM | [15] 17.3 µM | [16] 14.6 µM | [17] 19.4 µM | [18] 14.2 µM | [19] 21.7 µM

O=C(O)c1cc2ccccc2c(/N=N/c2ccc(S(=O)(=O)Nc3ncccn3)cc2)c1O
inactive: [20] > 100 µM | [2] > 100 µM | [3] > 100 µM | [4] > 100 µM | [5] > 100 µM | [6] > 100 µM | [7] > 100 µM | [8] > 100 µM | [9] > 100 µM | [10] > 100 µM | [11] > 100 µM | [12] > 100 µM | [13] > 100 µM | [14] > 100 µM | [15] > 100 µM | [16] > 100 µM | [17] > 100 µM | [18] > 100 µM | [19] > 100 µM

CCC(=O)COc1ccc(NC(NC(=O)C(C(F)(F)F)C(F)(F)F)(C(F)(F)F)C(F)(F)F)cc1
inactive: [20] 37 µM | [1] > 10 µM | [2] 12.2 µM | [3] 27 µM | [5] 42.7 µM | [6] 18.4 µM | [7] 39.8 µM | [8] 30.3 µM | [9] 26.5 µM | [10] 19.2 µM | [11] 46.8 µM | [12] 27.9 µM | [13] 22.7 µM | [14] 14.3 µM | [15] 19.4 µM | [16] 23.7 µM | [17] 36.2 µM | [18] 94 µM | [19] 54.5 µM

COC1CC(O[C@H]2CC[C@@]3(C)[C@@H](CC[C@]4(O)[C@@H]3CC[C@]3(C)[C@@H](C(C)=O)[C@H](OC(=O)CC(C)C)[C@@H](OC(=O)c5ccccc5)[C@@]34O)C2)OC(C)C1OC1CC(OC)C(OC2OC(C)C(O)C(OC)C2O)C(C)O1 (stereo partly specified)
inactive: [20] 18.3 µM | [1] > 25 µM | [2] 11.3 µM | [3] 18.5 µM | [5] 12.2 µM | [6] 13.1 µM | [7] 9.46 µM | [8] > 25 µM | [9] 18.4 µM | [10] 13.6 µM | [11] > 25 µM | [12] > 25 µM | [13] 11.9 µM | [14] 7.08 µM | [15] 11.6 µM | [16] 11.9 µM | [17] 12.9 µM | [18] 11.8 µM | [19] 7.89 µM
